The subject of the assay is primary rat mixed cortical cells. Briefly: In vitro myelination assay (MBP positive myelin strands, fold myelin pixels above background). It counts as cell-based. To be noted: Rattus norvegicus; for fold induction at 1 µM: 1.0 μM compound; for fold induction at 10 µM: 10.0 μM compound. Put shortly:
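Fourteen-day treatment of primary P1 rat mixed cortical cultures, re-dosed at days 6 and 10, at 1.0 μM and 10.0 μM. MBP immunofluorescence was imaged at 10× and myelin strands quantified by software, normalised to untreated wells as fold above background.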

Where [1] appears, read: read-out: Fold myelin pixels above background relative to baseline of no added compound.
The mark [2] stands for this setting: relative to baseline of no added compound, read-out: Fold myelin pixels above background.
The mark [3] stands for this setting: relative to baseline of no added compound, read-out: Fold myelin pixels above background, 1.0 μM.
The mark [4] stands for this setting: relative to baseline of no added compound, read-out: Fold myelin pixels above background, 10.0 μM.

The structures appear in SMILES notation. Read-outs that look alike come from different tables or passages of the source. Bounds are passed on as bounds.

28 molecules from US10766869B2, “Triazoles for the treatment of demyelinating dieases” (Vertex Pharmaceuticals Incorporated, priority 2015, dated 2020) can be followed below.

Turning to `Cc1cc(Nc2ncn(-c3cc(F)cc(F)c3)n2)cc(N2CC(O)C(N3CCCC3)C2)c1` (centres unmarked) [Compound 1010, 1-[3-[[1-(3,5-difluorophenyl)-1,2,4-triazol-3-yl]amino]-5-methyl-phenyl]-4-pyrrolidin-1-yl-pyrrolidin-3-ol], under setting [1], the fold induction at 1 µM was 1 to 10 and the fold induction at 10 µM is at most 1.

In the case of `Cc1cc(Nc2ncn(-c3cc(F)cc(F)c3)n2)cc(OCc2ccn(C)n2)c1` [Compound 605, 1-(3,5-difluorophenyl)-N-[3-methyl-5-[(1-methylpyrazol-3-yl)methoxy]phenyl]-1,2,4-triazol-3-amine], under setting [2], the fold induction at 1 µM fell in the range of 10 to 100 and the fold induction at 10 µM is 10 to 100.

For `COc1nccc(-n2cnc(Nc3cc(C4CC4)cc(N4CCN(C5COC5)CC4)c3)n2)n1` [Compound 277, N-[3-cyclopropyl-5-[4-(oxetan-3-yl)piperazin-1-yl]phenyl]-1-(2-methoxypyrimidin-4-yl)-1,2,4-triazol-3-amine], the fold induction at 1 µM under setting [3] fell in the range of 10 to 100. Under setting [4], the fold induction at 10 µM was 100 to 1000.

Regarding `Cc1cc(Nc2ncn(-c3cccnc3)n2)c(F)c(N2CCN(C3COC3)CC2)c1` [Compound 1022, N-[2-fluoro-5-methyl-3-[4-(oxetan-3-yl)piperazin-1-yl]phenyl]-1-(3-pyridyl)-1,2,4-triazol-3-amine], under setting [1], the fold induction at 1 µM was 1 to 10 and the fold induction at 10 µM is 10 to 100.

As to `Cc1cc(Nc2ncn(-c3cc(F)cc(F)c3)n2)cc(N2CC(N3CCCC3=O)C2)c1` [Compound 542, 1-[1-[3-[[1-(3,5-difluorophenyl)-1,2,4-triazol-3-yl]amino]-5-methyl-phenyl]azetidin-3-yl]pyrrolidin-2-one], under setting [2], the fold induction at 1 µM lay within 10 to 100 and the fold induction at 10 µM was 10 to 100.

As for `COCCC1CCN(c2cc(C)cc(Nc3ncn(-c4ccccc4)n3)c2)CC1` [Compound 148, N-[3-[4-(2-methoxyethyl)-1-piperidyl]-5-methyl-phenyl]-1-phenyl-1,2,4-triazol-3-amine], the fold induction at 1 µM under setting [3] lay within 100 to 1000. The fold induction at 10 µM under setting [4] lay within 100 to 1000.

For the molecule `Cc1cc(NCC2(N3CCOCC3)CC2)cc(Nc2ncn(-c3cc(F)cc(F)c3)n2)c1` [Compound 951, N1-[1-(3,5-difluorophenyl)-1,2,4-triazol-3-yl]-5-methyl-N3-[(1-morpholinocyclopropyl)methyl]benzene-1,3-diamine], under setting [1], the fold induction at 1 µM is 1 to 10 and the fold induction at 10 µM is at most 1.

As for `Cc1cc(Nc2ncn(-c3cc(F)cc(F)c3)n2)cc(N2CCCC3COCC32)c1` (centres unmarked) [Compound 981, N-[3-(3,4,4a,5,7,7a-hexahydro-2H-furo[3,4-b]pyridin-1-yl)-5-methyl-phenyl]-1-(3,5-difluorophenyl)-1,2,4-triazol-3-amine], under setting [1], the fold induction at 1 µM is 1 to 10 and the fold induction at 10 µM was in the range of 10 to 100.

In the case of `Cc1cc(Nc2ncn(-c3cccc(Cl)c3)n2)cc(N2CCN(C3COC3)CC2)c1` [Compound 397, 1-(3-chlorophenyl)-N-[3-methyl-5-[4-(oxetan-3-yl)piperazin-1-yl]phenyl]-1,2,4-triazol-3-amine], under setting [2], the fold induction at 1 µM is 1000 to 10000 and the fold induction at 10 µM was in the range of 100 to 1000.

`CN1CCN(c2cc(Nc3ncn(-c4cc(F)cc(F)c4)n3)cc(C(F)(F)F)c2)CC1` [Compound 63, 1-(3,5-difluorophenyl)-N-[3-(4-methylpiperazin-1-yl)-5-(trifluoromethyl)phenyl]-1,2,4-triazol-3-amine]: the fold induction at 1 µM under setting [3] is 10 to 100. Also, under setting [4], the fold induction at 10 µM is 1 to 10.

Regarding `Cc1cc(Nc2ncn(-c3cc(F)cc(F)c3)n2)nc(N2CC(C3COC3)C2)c1` [Compound 563, N-[1-(3,5-difluorophenyl)-1,2,4-triazol-3-yl]-4-methyl-6-[3-(oxetan-3-yl)azetidin-1-yl]pyridin-2-amine], under setting [2], the fold induction at 1 µM was at most 1 and the fold induction at 10 µM was in the range of 1 to 10.

Regarding `Cc1cc(Nc2ncn(-c3ccccc3)n2)cc(N2CC3(C2)CN(C(C)C)C3)c1` [Compound 1034, N-[3-(2-isopropyl-2,6-diazaspiro[3.3]heptan-6-yl)-5-methyl-phenyl]-1-phenyl-1,2,4-triazol-3-amine], under setting [1], the fold induction at 1 µM lay within 10 to 100 and the fold induction at 10 µM was at most 1.

For `Cc1cc(Nc2ncn(-c3ccc(F)c(F)c3)n2)cc(N2CCN(C3COC3)CC2)c1` [Compound 386, 1-(3,4-difluorophenyl)-N-[3-methyl-5-[4-(oxetan-3-yl)piperazin-1-yl]phenyl]-1,2,4-triazol-3-amine], under setting [2], the fold induction at 1 µM lay within 100 to 1000 and the fold induction at 10 µM lay in the range of 1000 to 10000.

For the molecule `N#Cc1cc(Nc2ncn(-c3cnccn3)n2)cc(N2CCOCC2)c1` [Compound 666, 3-morpholino-5-[(1-pyrazin-2-yl-1,2,4-triazol-3-yl)amino]benzonitrile], under setting [2], the fold induction at 1 µM was in the range of 10 to 100 and the fold induction at 10 µM is 1 to 10.

Take `Fc1cc(Nc2ncn(-c3ccccc3F)n2)cc(N2CCOCC2)c1` [Compound 49, N-(3-fluoro-5-morpholino-phenyl)-1-(2-fluorophenyl)-1,2,4-triazol-3-amine]: the fold induction at 1 µM under setting [3] is at most 1. In addition, the fold induction at 10 µM under setting [4] fell in the range of 10 to 100.

With `Cc1cc(Nc2ncn(-c3cnccn3)n2)cc(N2CCN(C)CC2)c1` [Compound 68, N-[3-methyl-5-(4-methylpiperazin-1-yl)phenyl]-1-pyrazin-2-yl-1,2,4-triazol-3-amine], the fold induction at 1 µM under setting [3] was in the range of 100 to 1000. In addition, the fold induction at 10 µM under setting [4] lay within 1000 to 10000.

Regarding `Cc1cc(Nc2ncn(-c3ccnc(F)c3)n2)cc(N2CCOCC2)c1` [Compound 403, 1-(2-fluoro-4-pyridyl)-N-(3-methyl-5-morpholino-phenyl)-1,2,4-triazol-3-amine], under setting [2], the fold induction at 1 µM fell in the range of 1000 to 10000 and the fold induction at 10 µM was 10 to 100.

`Fc1cc(-n2cnc(Nc3cc(C4CC4)cc(N4CCN(C5COC5)CC4)c3)n2)cc(F)n1` [Compound 121, N-[3-cyclopropyl-5-[4-(oxetan-3-yl)piperazin-1-yl]phenyl]-1-(2,6-difluoro-4-pyridyl)-1,2,4-triazol-3-amine]: the fold induction at 1 µM under setting [3] lay in the range of 100 to 1000. For the same molecule, the fold induction at 10 µM under setting [4] was at most 1.

Consider `CC(=O)N1CC(CNc2cc(C)cc(Nc3ncn(-c4cc(F)cc(F)c4)n3)c2)C1` [Compound 1031, 1-[3-[[3-[[1-(3,5-difluorophenyl)-1,2,4-triazol-3-yl]amino]-5-methyl-anilino]methyl]azetidin-1-yl]ethanone], for which, under setting [1], the fold induction at 1 µM fell in the range of 10 to 100 and the fold induction at 10 µM was at most 1.

Take `Cc1cc(Nc2ccn(C(C)C)n2)cc(Nc2ncn(-c3ccccc3)n2)c1` [Compound 669, N3-(1-isopropylpyrazol-3-yl)-5-methyl-N1-(1-phenyl-1,2,4-triazol-3-yl)benzene-1,3-diamine]: under setting [2], the fold induction at 1 µM lay in the range of 10 to 100 and the fold induction at 10 µM is at most 1.

For `[2H]C1([2H])NC([2H])([2H])C([2H])([2H])N(c2cc(C)cc(Nc3ncn(-c4cc(F)cc(F)c4)n3)c2)C1([2H])[2H]` [Compound 916, 1-(3,5-difluorophenyl)-N-[3-methyl-5-(2,2,3,3,5,5,6,6-octadeuteriopiperazin-1-yl)phenyl]-1,2,4-triazol-3-amine], under setting [1], the fold induction at 1 µM lay in the range of 10 to 100 and the fold induction at 10 µM was at most 1.

Turning to `Cc1cc(Nc2ncn(-c3cccc(C(F)F)c3)n2)cc(N2CCC(N3CCOCC3)CC2)c1` [Compound 725, 1-[3-(difluoromethyl)phenyl]-N-[3-methyl-5-(4-morpholino-1-piperidyl)phenyl]-1,2,4-triazol-3-amine], under setting [2], the fold induction at 1 µM is 10 to 100 and the fold induction at 10 µM was 10 to 100.

For the molecule `CN1CCN(c2cc(F)cc(Nc3ncn(-c4ccccc4)n3)c2)CC1` [Compound 213, N-[3-fluoro-5-(4-methylpiperazin-1-yl)phenyl]-1-phenyl-1,2,4-triazol-3-amine], the fold induction at 1 µM under setting [3] fell in the range of 100 to 1000. The fold induction at 10 µM under setting [4] was at most 1.

Turning to `Fc1cc(F)cc(-n2cnc(Nc3cc(C4CC4)nc(N4CCCC4)c3)n2)c1` [Compound 170, 2-cyclopropyl-N-[1-(3,5-difluorophenyl)-1,2,4-triazol-3-yl]-6-pyrrolidin-1-yl-pyridin-4-amine], the fold induction at 1 µM under setting [3] lay in the range of 10 to 100. Also, under setting [4], the fold induction at 10 µM was 100 to 1000.

For `Cc1cc(Nc2ncn(-c3cc(F)cc(F)c3)n2)cc(N2CC(n3cccn3)C2)c1` [Compound 379, 1-(3,5-difluorophenyl)-N-[3-methyl-5-(3-pyrazol-1-ylazetidin-1-yl)phenyl]-1,2,4-triazol-3-amine], under setting [3], the fold induction at 1 µM lay in the range of 10 to 100. Also, under setting [4], the fold induction at 10 µM fell in the range of 100 to 1000.

With `Cc1cc(Nc2ncn(-c3ccccc3)n2)cc(C2CCCNC2)c1` (centres unmarked) [Compound 316, N-[3-methyl-5-(3-piperidyl)phenyl]-1-phenyl-1,2,4-triazol-3-amine], the fold induction at 1 µM under setting [3] lay in the range of 100 to 1000. Besides, the fold induction at 10 µM under setting [4] is at most 1.

On to `Cc1cc(Nc2ncn(-c3cc(F)cc(F)c3)n2)cc(N2CC3CC2CO3)c1` (centres unmarked) [Compound 727, 1-(3,5-difluorophenyl)-N-[3-methyl-5-(2-oxa-5-azabicyclo[2.2.1]heptan-5-yl)phenyl]-1,2,4-triazol-3-amine], for which, under setting [2], the fold induction at 1 µM fell in the range of 10 to 100 and the fold induction at 10 µM is at most 1.

Regarding `Cc1cc(Nc2ncn(-c3ccccc3)n2)cc(N2C[C@@H](C)N(C)[C@@H](C)C2)c1` [Compound 423, N-[3-methyl-5-[(3R,5S)-3,4,5-trimethylpiperazin-1-yl]phenyl]-1-phenyl-1,2,4-triazol-3-amine], under setting [2], the fold induction at 1 µM was 100 to 1000 and the fold induction at 10 µM was at most 1.
